Where two headings read alike, the source gives them in different places.
Target: T1, BRD9 (Homo sapiens, UniProt Q9H8M2)
T1 sequence (Q9H8M2 1-597): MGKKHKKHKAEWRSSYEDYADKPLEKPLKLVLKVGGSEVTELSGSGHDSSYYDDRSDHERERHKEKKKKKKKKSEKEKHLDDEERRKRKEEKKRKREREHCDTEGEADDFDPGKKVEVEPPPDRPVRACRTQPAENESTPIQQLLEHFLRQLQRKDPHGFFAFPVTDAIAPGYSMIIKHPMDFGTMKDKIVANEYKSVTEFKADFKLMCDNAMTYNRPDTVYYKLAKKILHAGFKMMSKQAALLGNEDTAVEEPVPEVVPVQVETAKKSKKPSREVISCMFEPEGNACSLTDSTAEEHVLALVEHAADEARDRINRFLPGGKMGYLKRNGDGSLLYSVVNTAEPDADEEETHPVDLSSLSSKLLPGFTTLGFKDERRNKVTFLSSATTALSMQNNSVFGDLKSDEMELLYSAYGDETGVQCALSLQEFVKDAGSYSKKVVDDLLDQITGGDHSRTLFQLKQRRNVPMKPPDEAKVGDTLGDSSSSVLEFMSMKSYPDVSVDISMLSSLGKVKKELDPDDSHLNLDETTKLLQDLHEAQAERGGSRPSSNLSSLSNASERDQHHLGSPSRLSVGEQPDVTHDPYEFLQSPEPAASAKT
Test: Degradation of BRD9 (IF), immunofluorescence in MV4-11 cells, 24 hours (Assay Protocol 2)
Format: cell-based
Design: A suspension of MV4-11 cells (ATCC CRL-9591) was prepared; host or cells: MV4-11
Settings: BRD9 degradation; for DC50: read-out: DC50
Method: Assay Protocol 2—Degradation of BRD9 (IF)
A suspension of MV4-11 cells (ATCC CRL-9591) was prepared in phenol red-free assay media (IMDM Thermo Scientific 21056023+10% FBS ATCC 302025) and cells were seeded at 20,000 cells per well (45 μL) in sterile black poly-d-lysine coated 384 well plates (Greiner 781948). Compounds were prepared at 1000× final concentration in DMSO, diluted 1:100 in assay media, and 5 μL compound was added to each well of the cell plate. Cells were incubated for 24 hours at 37° C. with 5% CO2. All the following incubations for immunofluorescence staining were at room temperature. 15 μL of 16% PFA was added to each well (3.7% final concentration) and the cells were fixed for 15 min then washed twice with DPBS. Cells were permeabilised with 0.1% Triton X-100 for 10 min, Triton X-100 was removed, then blocked with 1% BSA in DPBS for 1 hour. Cells were stained with 25 μL anti-BRD9 E4Q3F antibody (CST 48306) diluted 1:25600 in 1% BSA in DPBS for 2-3 hours. Wels were washed twice with DPBS then incubated with 25 μL of 1% BSA containing a 1:1000 dilution of Anti-rabbit Alexa Fluor™ 647 secondary antibody (Thero Scientific A21244) and 1 μg/mL Hoechst nuclear counter stain (Abcam ab228551) for 1 hour. Wells were washed twice with DPBS prior to imaging on a Perkin Elmer Operetta CLS with 10× air lens. Images were processed using Harmony High-Content Imaging and Analysis Software (Perkin Elmer) and the mean contrast ratio of Alexa Fluor™ 647 in central nuclei was used to quantify BRD9 protein levels. Data was further analysed using Dotmatics software and % BRD9 remaining was calculated by normalisation to average data from high and low control wells (cells treated with DMSO or 100 nM CFT-8634 respectively).

[1] = MV4-11, Assay protocol 2, read-out: Dmax

| SMILES | DC50 (Assay protocol 2) [nM] | Dmax [1] [%] | Dmax (Assay protocol 2) |
| --- | --- | --- | --- |
| COc1cc(-c2cn(C)c(=O)c(C)c2C)cc(OC)c1CN1CCC(COc2cccc3c2CCN(C(=O)/C(C#N)=C/C(C)(C)C)C3C)CC1 (mixture of isomers) [Compound B86, (E/Z)-2-(5-((1-(2,6-dimethoxy-4-(1,4,5-trimethyl-6-oxo-1,6-dihydropyridin-3-yl)benzyl)piperidin-4-yl)methoxy)-1-methyl-1,2,3,4-tetrahydroisoquinoline-2-carbonyl)-4,4-dimethylpent-2-enenitrile] | 10 to 25 | 40 to 70 |  |
| COc1cc(-c2cn(C)c(=O)c(C)c2C)cc(OC)c1C(=O)N1CCC(Oc2cccc3c2CCN(C(=O)/C(C#N)=C/c2cccc(Br)n2)C3C)CC1 (mixture of isomers) [Compound B88, (E/Z)-3-(6-bromopyridin-2-yl)-2-(5-((1-(2,6-dimethoxy-4-(1,4,5-trimethyl-6-oxo-1,6-dihydropyridin-3-yl)benzoyl)piperidin-4-yl)oxy)-1-methyl-1,2,3,4-tetrahydroisoquinoline-2-carbonyl)acrylonitrile] | 10 to 25 | 40 to 70 |  |
| COc1cc(-c2cn(C)c(=O)c(C)c2C)cc(OC)c1CN1CCN(Cc2cccc3c2CCN(C(=O)/C(C#N)=C/c2cnc(C)cn2)C3C)CC1 (mixture of isomers) [Compound B89, (E/Z)-2-(5-((4-(2,6-dimethoxy-4-(1,4,5-trimethyl-6-oxo-1,6-dihydropyridin-3-yl)benzyl)piperazin-1-yl)methyl)-1-methyl-1,2,3,4-tetrahydroisoquinoline-2-carbonyl)-3-(5-methylpyrazin-2-yl)acrylonitrile] | < 1.25 | > 75 |  |
| COc1cc(-c2cn(C)c(=O)c(C)c2C)cc(OC)c1CN1CCN(Cc2cccc3c2CCN(C(=O)/C(C#N)=C/C2CCCC2)C3C)CC1 (mixture of isomers) [Compound B90, (E/Z)-3-cyclopentyl-2-(5-((4-(2,6-dimethoxy-4-(1,4,5-trimethyl-6-oxo-1,6-dihydropyridin-3-yl)benzyl)piperazin-1-yl)methyl)-1-methyl-1,2,3,4-tetrahydroisoquinoline-2-carbonyl)acrylonitrile] | 10 to 25 | 40 to 70 |  |
| COc1cc(-c2cn(C)c(=O)c(C)c2C)cc(OC)c1CN1CCN(Cc2cccc3c2CCN(C(=O)/C(C#N)=C/c2cccc(F)c2F)C3C)CC1 (mixture of isomers) [Compound B91, (E/Z)-3-(2,3-difluorophenyl)-2-(5-((4-(2,6-dimethoxy-4-(1,4,5-trimethyl-6-oxo-1,6-dihydropyridin-3-yl)benzyl)piperazin-1-yl)methyl)-1-methyl-1,2,3,4-tetrahydroisoquinoline-2-carbonyl)acrylonitrile] | 1.25 to 10 | 40 to 70 |  |
| COc1cc(/C=C(\C#N)C(=O)N2CCc3c(CN4CCN(Cc5c(OC)cc(-c6cn(C)c(=O)c(C)c6C)cc5OC)CC4)cccc3C2C)c(F)cn1 (mixture of isomers) [Compound B92, (E/Z)-2-(5-((4-(2,6-dimethoxy-4-(1,4,5-trimethyl-6-oxo-1,6-dihydropyridin-3-yl)benzyl)piperazin-1-yl)methyl)-1-methyl-1,2,3,4-tetrahydroisoquinoline-2-carbonyl)-3-(5-fluoro-2-methoxypyridin-4-yl)acrylonitrile] | < 1.25 | 40 to 70 |  |
| COc1ccc(F)c(/C=C(\C#N)C(=O)N2CCc3c(CN4CCN(Cc5c(OC)cc(-c6cn(C)c(=O)c(C)c6C)cc5OC)CC4)cccc3C2C)c1 (mixture of isomers) [Compound B93, (E/Z)-2-(5-((4-(2,6-dimethoxy-4-(1,4,5-trimethyl-6-oxo-1,6-dihydropyridin-3-yl)benzyl)piperazin-1-yl)methyl)-1-methyl-1,2,3,4-tetrahydroisoquinoline-2-carbonyl)-3-(2-fluoro-5-methoxyphenyl)acrylonitrile] | 1.25 to 10 | 40 to 70 |  |
| COc1cc(-c2cn(C)c(=O)c(C)c2C)cc(OC)c1CN1CCC(COc2cccc3c2CCN(C(=O)/C(C#N)=C/c2cccc(Br)n2)C3C)CC1 (mixture of isomers) [Compound B95, (E/Z)-3-(6-bromopyridin-2-yl)-2-(5-((1-(2,6-dimethoxy-4-(1,4,5-trimethyl-6-oxo-1,6-dihydropyridin-3-yl)benzyl)piperidin-4-yl)methoxy)-1-methyl-1,2,3,4-tetrahydroisoquinoline-2-carbonyl)acrylonitrile] | < 1.25 | 70 to 75 |  |
| COc1cc(-c2cn(C)c(=O)c3[nH]ncc23)cc(OC)c1CN1CCN(Cc2cccc3c2CCN(C(=O)/C(C#N)=C/c2cccc(Br)n2)C3C)CC1 (mixture of isomers) [Compound B96, (E/Z)-3-(6-bromopyridin-2-yl)-2-(5-((4-(2,6-dimethoxy-4-(6-methyl-7-oxo-6,7-dihydro-1H-pyrazolo[3,4-c]pyridin-4-yl)benzyl)piperazin-1-yl)methyl)-1-methyl-1,2,3,4-tetrahydroisoquinoline-2-carbonyl)acrylonitrile] | 1.25 to 10 | 40 to 70 |  |
| COc1cc(-c2cn(C)c(=O)c(C)c2C)cc(OC)c1CN1CCN(Cc2cccc3c2CCN(C(=O)/C(C#N)=C/C(C)(C)C)C3C)C(C)(C)C1 (mixture of isomers) [Compound B98, (E/Z)-2-(5-((4-(2,6-dimethoxy-4-(1,4,5-trimethyl-6-oxo-1,6-dihydropyridin-3-yl)benzyl)-2,2-dimethylpiperazin-1-yl)methyl)-1-methyl-1,2,3,4-tetrahydroisoquinoline-2-carbonyl)-4,4-dimethylpent-2-enenitrile] | 10 to 25 | > 75 |  |
| COc1cc(-c2cn(C)c(=O)c(C)c2C)cc(OC)c1CN1CCN(Cc2cccc3c2CCN(C(=O)C(C#N)=Cc2cccc(Br)n2)C3C)C(C)(C)C1 (mixture of isomers) [Compound B99, (E/Z)-3-(6-bromopyridin-2-yl)-2-(5-((4-(2,6-dimethoxy-4-(1,4,5-trimethyl-6-oxo-1,6-dihydropyridin-3-yl)benzyl)-2,2-dimethylpiperazin-1-yl)methyl)-1-methyl-1,2,3,4-tetrahydroisoquinoline-2-carbonyl)acrylonitrile] | 25 to 1000 |  | + (+ = >40% and <70%) |
| COc1cc(-c2cn(C)c(=O)c(C)c2C)cc(OC)c1CN1C[C@H](C)N(Cc2cccc3c2CCN(C(=O)/C(C#N)=C/C(C)(C)C)C3C)[C@@H](C)C1 (mixture of isomers) [Compound B100, (E/Z)-2-(5-(((2S,6S)-4-(2,6-dimethoxy-4-(1,4,5-trimethyl-6-oxo-1,6-dihydropyridin-3-yl)benzyl)-2,6-dimethylpiperazin-1-yl)methyl)-1-methyl-1,2,3,4-tetrahydroisoquinoline-2-carbonyl)-4,4-dimethylpent-2-enenitrile] | 25 to 1000 | 70 to 75 |  |
| COc1cc(-c2cn(C)c(=O)c(C)c2C)cc(OC)c1CN1CC2CCC1CN2Cc1cccc2c1CCN(C(=O)/C(C#N)=C/C(C)(C)C)C2C (mixture of isomers) [Compound B101, (E/Z)-2-(5-((5-(2,6-dimethoxy-4-(1,4,5-trimethyl-6-oxo-1,6-dihydropyridin-3-yl)benzyl)-2,5-diazabicyclo[2.2.2]octan-2-yl)methyl)-1-methyl-1,2,3,4-tetrahydroisoquinoline-2-carbonyl)-4,4-dimethylpent-2-enenitrile] | 1.25 to 10 | 40 to 70 |  |
| COc1cc(-c2cn(C)c(=O)c(C)c2C)cc(OC)c1CN1CCN(Cc2cccc3c2CCN(C(=O)/C(C#N)=C/C(C)(C)C)C3C)[C@@H](C)C1 (mixture of isomers) [Compound B102] | 25 to 1000 | > 75 |  |

— patent US20260092061A1, “COMPOUNDS FOR TARGETED PROTEIN DEGRADATION” (Amphista Therapeutics Limited, priority 2022, published 2026)
